# Read-outs that look alike come from different tables or passages of the source. Where a SMILES comes first, the peptide text is derived from it. Bridges are numbered along the chain shown (N, C = ends). [ ]: non-standard residue; d: D form. The star is where a group is joined. hPhe(3,5-F2-4-CF3) = N[C@@H](CCc1cc(F)c(C(F)(F)F)c(F)c1)C(=O)O; hPhe(3-Cl-4-CF3) = N[C@@H](CCc1ccc(C(F)(F)F)c(Cl)c1)C(=O)O; NPrPhe(4-CF3) = CCCN[C@@H](Cc1ccc(C(F)(F)F)cc1)C(=O)O; NMeGly(cPent) = CN[C@H](C(=O)O)C1CCCC1; Nva(3-Et) = CCC(CC)[C@H](N)C(=O)O; Hyp = O=C(O)[C@@H]1C[C@@H](O)CN1; NMeD = CN[C@@H](CC(=O)O)C(=O)O; NMeL = CN[C@@H](CC(C)C)C(=O)O; Morpholide = C1CN(*)CCO1; Ac5c = NC1(C(=O)O)CCCC1; Ac4c = NC1(C(=O)O)CCC1; NPrGly = CCCNCC(=O)O; Sar = CNCC(=O)O
# What was measured:
# [1] = biological target: GDP-bound NRAS wild-type protein (Homo sapiens, UniProt P01111); test: Binding to NRAS by surface plasmon resonance (SPR), KD and KD ratio to KRAS
# Outline: (§1)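 Affinity is measured by surface plasmon resonance at 30°C against captured, GDP-loaded RAS carrying a biotinylated Avi tag. Compounds are titrated by single-cycle kinetics, and KD comes from a 1:1 fit.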
# [2] = test system: human lung cancer strain NCI-H441; type: cell-based
# Outline: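 Readout: […] after the ATP-based reagent. Compound: serial dilutions in dimethyl sulfoxide.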
# HRAS wild-type protein = HRAS wild-type protein (Homo sapiens, UniProt P01112); test: Binding to HRAS by surface plasmon resonance (SPR), KD and KD ratio to KRAS
# Outline: as §1
# [3] = ratio of KD for GDP-bound NRAS wild-type protein to KD for KRAS
# [4] = ratio of KD for HRAS wild-type protein to KD for KRAS
# [5] = ratio of the KD value with respect to GDP-bound NRAS wild-type protein to the KD value with respect to KRAS
# [6] = ratio of the KD value with respect to HRAS wild-type protein to the KD value with respect to KRAS
# Chain of GDP-bound NRAS wild-type protein (P01111 whole entry): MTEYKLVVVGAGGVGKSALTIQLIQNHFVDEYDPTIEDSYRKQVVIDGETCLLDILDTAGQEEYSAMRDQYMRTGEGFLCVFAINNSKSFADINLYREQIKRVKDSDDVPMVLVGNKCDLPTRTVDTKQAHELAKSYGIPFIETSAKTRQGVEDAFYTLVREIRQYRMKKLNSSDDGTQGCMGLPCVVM
# Chain of HRAS wild-type protein (P01112 whole entry): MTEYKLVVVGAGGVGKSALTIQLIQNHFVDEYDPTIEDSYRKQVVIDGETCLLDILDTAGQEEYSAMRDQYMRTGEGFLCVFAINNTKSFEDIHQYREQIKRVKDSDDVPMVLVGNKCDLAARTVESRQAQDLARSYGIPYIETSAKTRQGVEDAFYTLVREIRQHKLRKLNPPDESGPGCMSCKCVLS
smiles,measurement,setting,value
CCO[C@@H]1C[C@H]2C(=O)NC3(CC(F)(F)C3)C(=O)N(C)[C@@H](C3CCCC3)C(=O)N(C)[C@H](CC)CC(=O)N(C)[C@@H](CC3CC3)C(=O)N[C@@H]([C@@H](C)CC)C(=O)N(C)CC(=O)N(C)[C@H]3C/C=C\CCN(C3=O)[C@@H](Cc3ccc(C(F)(F)F)cc3)C(=O)N(C)CC(=O)N[C@@H](CCc3cc(F)c(C(F)(F)F)c(F)c3)C(=O)N2C1 [PP1633],NRAS /KRAS,[1]; ratio of KD value for GDP-bound NRAS wild-type protein to KD value for KRAS (SPR),A (a compound having 10 or more and less than 20 is denoted as A)
same,IC50,[2],15.1 nM
same,HRAS /KRAS,HRAS wild-type protein; ratio of KD value for HRAS wild-type protein to KD value for KRAS (SPR),B (a compound having 3 or more and less than 10 is denoted as B)
CCC[C@H]1C(=O)N[C@@H]([C@@H](C)CC)C(=O)N2CCC[C@H]2C(=O)N(C)[C@H]2C/C=C\CCN(C2=O)[C@@H](Cc2ccc(C(F)(F)F)cc2)C(=O)N(C)CC(=O)N[C@@H](CCc2ccc(C(F)(F)F)c(OC)c2)C(=O)N2C[C@H](OCC)C[C@H]2C(=O)N(C)C2(CCC2)C(=O)N(C)[C@@H](C2CCCC2)C(=O)N(C)[C@H](C(=O)N2CCCC2)CC(=O)N1C [PP3101],NRAS /KRAS,[1]; [3],A (a compound having 10 or more and less than 20 is denoted as A)
same,IC50,[2],4.9 nM
same,HRAS /KRAS,HRAS wild-type protein; [4],A (a compound having 10 or more and less than 20 is denoted as A)
CC[C@H](C)[C@@H]1NC(=O)[C@H](CC(C)C)N(C)C(=O)C[C@@H](C(=O)N2CCOCC2)N(C)C(=O)[C@H](C2CCCC2)N(C)C(=O)C2(CCC2)NC(=O)[C@@H]2C[C@@H](OCC3CC3)CN2C(=O)[C@H](CCc2cc(F)c(C(F)(F)F)c(F)c2)NC(=O)CN(C)C(=O)[C@H](Cc2ccc(C(F)(F)F)cc2)N2CCCCC[C@@H](C2=O)N(C)C(=O)CN(C)C1=O [PP1005],NRAS /KRAS,[1]; [3],A (a compound having 10 or more and less than 20 is denoted as A)
same,IC50,[2],275 nM
same,HRAS /KRAS,HRAS wild-type protein; [4],A (a compound having 10 or more and less than 20 is denoted as A)
CCC[C@H]1C(=O)N[C@@H]([C@@H](C)CC)C(=O)N(C)CC(=O)N(C)[C@H]2C/C=C\CCN(C2=O)[C@@H](Cc2ccc(C)cc2)C(=O)N(C)CC(=O)N[C@@H](CCc2ccc(C(F)(F)F)c(OC)c2)C(=O)N2C[C@H](OCC)C[C@H]2C(=O)NC2(CC(C)(C)C2)C(=O)N(C)[C@@H](C(CC)CC)C(=O)N(C)[C@H](C(=O)N(C)C)CC(=O)N1C [PP2068],NRAS /KRAS,[1]; [5],A (a compound having 10 or more and less than 20 is denoted as A)
same,IC50,[2],11.1 nM
same,HRAS /KRAS,HRAS wild-type protein; [6],B (a compound having 3 or more and less than 10 is denoted as B)
CCOC[C@H]1C(=O)N[C@@H]([C@@H](C)CC)C(=O)N(C)CC(=O)N(C)[C@H]2C/C=C\CCN(C2=O)[C@@H](Cc2ccc3c(c2)CCC3(F)F)C(=O)N(C)CC(=O)N[C@@H](CCc2ccc(C(F)(F)F)c(OC)c2)C(=O)N2C[C@@H](C)C[C@H]2C(=O)NC2(CC(C)(C)C2)C(=O)N(C)[C@@H](C2CCCC2)C(=O)N(C)[C@H](C(=O)N(C)CC)CC(=O)N1C [PP2704],NRAS /KRAS,[1]; [3],B (a compound having 3 or more and less than 10 is denoted as B)
same,IC50,"[2]; NCI-H441 cells, 4 days, CellTiter-Glo, read-out: NCl-H441 IC50",10.7 nM
same,HRAS /KRAS,HRAS wild-type protein; [4],B (a compound having 3 or more and less than 10 is denoted as B)
"CCCN1C(=O)CN(C)C(=O)CN(C)C(=O)[C@H](C(CC)CC)NC(=O)[C@H](CC(C)C)N(C)C(=O)C[C@@H](C(=O)N2CCOCC2)N(C)C(=O)[C@H](C2CCCC2)N(C)C(=O)C2(CCCC2)NC(=O)[C@@H]2CCCN2C(=O)[C@H](CCc2cc(F)c(C(F)(F)F)c(F)c2)NC(=O)CN(C)C(=O)[C@@H]1Cc1ccc(C(F)(F)F)cc1 [PP0768] ([NMeL][Nva(3-Et)][Sar][Sar][NPrPhe(4-CF3)][Sar][hPhe(3,5-F2-4-CF3)]P[Ac5c][NMeGly(cPent)][NMeD]-Morpholide; lactam N-11)",NRAS /KRAS,[1]; [3],B (a compound having 3 or more and less than 10 is denoted as B)
same,IC50,[2],36.1 nM
same,HRAS /KRAS,HRAS wild-type protein; [4],C (A compound having a KD ratio of 0.1 or more and less than 3 is denoted as C)
CCCN1C(=O)CN(C)C(=O)CN(C)C(=O)[C@H]([C@@H](C)CC)NC(=O)[C@H](CC(C)C)N(C)C(=O)C[C@@H](C(=O)N(C)C)N(C)C(=O)[C@H](C2CCCC2)N(C)C(=O)C2(CCC2)NC(=O)[C@@H]2C[C@@H](OCC)CN2C(=O)[C@H](CCc2ccc(C(F)(F)F)c(Cl)c2)NC(=O)CN(C)C(=O)[C@@H]1Cc1ccc(C(F)(F)F)cc1 [PP0416] ([NMeL]I[Sar][Sar][NPrPhe(4-CF3)][Sar][hPhe(3-Cl-4-CF3)][Hyp](Et)[Ac4c][NMeGly(cPent)][NMeD]-NMe2; lactam N-11),NRAS /KRAS,[1]; [5],B (a compound having 3 or more and less than 10 is denoted as B)
same,IC50,[2],1.1 nM
same,HRAS /KRAS,HRAS wild-type protein; [6],C (A compound having a KD ratio of 0.1 or more and less than 3 is denoted as C)
CCCO[C@@H]1C[C@H]2C(=O)NC3(CC(C)(C)C3)C(=O)N(C)[C@@H](C3CCCC3)C(=O)N(C)[C@H](C(=O)N3CCCC3)CC(=O)N(C)[C@H]3CCCc4ccc(cc4)C[C@@H](C(=O)N(C)CC(=O)N[C@@H](CCc4ccc(C(F)(F)F)c(OC)c4)C(=O)N2C1)N1CC/C=C\C[C@@H](C1=O)N(C)C(=O)CN(C)C(=O)[C@H]([C@@H](C)CC)NC3=O [PP3065],NRAS /KRAS,[1]; [3],A (a compound having 10 or more and less than 20 is denoted as A)
same,IC50,[2],27.3 nM
same,HRAS /KRAS,HRAS wild-type protein; [4],B (a compound having 3 or more and less than 10 is denoted as B)
CCO[C@@H]1C[C@H]2C(=O)NC3(CC(C)(C)C3)C(=O)N(C)[C@@H](C3CCCC3)C(=O)N(C)[C@H](C(=O)N(C)C)CC(=O)N(C)[C@@H](CC(C)C)C(=O)N[C@@H]([C@@H](C)CC)C(=O)N(C)CC(=O)N(C)[C@H]3C/C=C\CCN(C3=O)[C@@H](Cc3ccc(C(C)=O)cc3)C(=O)N(C)CC(=O)N[C@@H](CCc3ccc(C(F)(F)F)c(OC)c3)C(=O)N2C1 [PP2694],NRAS /KRAS,[1]; [3],A (a compound having 10 or more and less than 20 is denoted as A)
same,IC50,[2],12 nM
same,HRAS /KRAS,HRAS wild-type protein; [4],B (a compound having 3 or more and less than 10 is denoted as B)
CCCN1CC(=O)N(C)CC(=O)N(CCC)[C@@H](Cc2ccc(C(F)(F)F)cc2)C(=O)N(C)CC(=O)N[C@@H](CCc2ccc(C(F)(F)F)c(Cl)c2)C(=O)N2CCC[C@H]2C(=O)NC2(CCCC2)C(=O)N(C)[C@@H](C2CCCC2)C(=O)N(C)[C@H](C(=O)N2CCOCC2)CC(=O)N(C)[C@@H](CC(C)C)C(=O)N[C@@H]([C@@H](C)CC)C1=O [PP0253] ([NMeL]I[NPrGly][Sar][NPrPhe(4-CF3)][Sar][hPhe(3-Cl-4-CF3)]P[Ac5c][NMeGly(cPent)][NMeD]-Morpholide; lactam N-11),NRAS /KRAS,[1]; [3],B (a compound having 3 or more and less than 10 is denoted as B)
same,IC50,[2],15.1 nM
same,HRAS /KRAS,HRAS wild-type protein; [4],B (a compound having 3 or more and less than 10 is denoted as B)
CCCN1C(=O)CN(C)C(=O)CNC(=O)[C@H]([C@@H](C)CC)NC(=O)[C@H](CC(C)C)N(C)C(=O)C[C@@H](C(=O)N2CCOCC2)NC(=O)[C@H](C2CCCC2)N(C)C(=O)C2(CCCC2)NC(=O)[C@@H]2CCCN2C(=O)[C@H](CCc2ccc(C(F)(F)F)c(Cl)c2)NC(=O)CN(C)C(=O)[C@@H]1Cc1ccc(C(F)(F)F)cc1 [PP0325] ([NMeL]IG[Sar][NPrPhe(4-CF3)][Sar][hPhe(3-Cl-4-CF3)]P[Ac5c][NMeGly(cPent)]D-Morpholide; lactam N-11),NRAS /KRAS,[1]; [3],B (a compound having 3 or more and less than 10 is denoted as B)
same,IC50,[2],163 nM
same,HRAS /KRAS,HRAS wild-type protein; [4],B (a compound having 3 or more and less than 10 is denoted as B)

# Reference: patent publication EP4603105A1, “PHARMACEUTICAL COMPOSITION CONTAINING CYCLIC COMPOUND HAVING SELECTIVE KRAS INHIBITORY EFFECT AGAINST HRAS AND NRAS” (CHUGAI SEIYAKU KABUSHIKI KAISHA, priority 2022, dated 2024)
